Measured values published in US20200375919A1, “BONE GRAFT MATERIAL WITH 4-HEXYLRESORCINOL THAT AFFECTS BONE FORMATION” (MANTIZ LOGITECH CO., LTD., priority 2019, published 2020).

Legend:
human primary cells = experiment: MTS measuring of cytotoxicity and cell viability; assay type: cell-based; settings: FIG. 1
Text: MTS Measuring Method of Cytotoxicity and Cell Viability
Mitochondrial NADH-dehydrogenase forms formazan having a color by reducing a tetrazolium salt such as MTS. Therefore, as the number of cells which express dehydrogenase, i.e., living cells is proportional to formation of formazan, the living cells can be quantified.
After seeding human primary cells, adhering the seeded-human primary cells to a cell plate, and treating the seeded-human primary cells adhered to the cell plate with an MTS Cell Proliferation Assay Kit (ab197010, UK, abcam) every 24 hours and 48 hours, resulting materials were confirmed by using a wavelength of 490 nm.

osteoblast-like cells [1] = experiment: Alkaline phosphatase activity (early-stage osteoblastic differentiation); assay type: cell-based, human; settings: 0.0194% (=10^-4M) compared with 3% and control; seventh day; FIG. 2
Experimental: Method of Measuring Cell Culture and Alkaline Phosphatase Activities
(§1) In vitro tests were performed by using osteoblast-like cells through a human primary cell culture. A cell survival environment was progressed by supplementing DMEM (Dulbecco Modified Eagle's Medium)-high glucose (PAA Laboratories, Pasching, Austria) and 20% fetal bovine serum (PAA, Canada) and comprising 1% penicillin/streptomycin (100×), and media were exchanged every other day. Resulting materials were confirmed on the seventh day of differentiation experiments by using alkaline phosphatase (Sigma, St. Louis, Mo., USA).

osteoblast-like cells [2] = experiment: Alizarin Red S staining (late osteoblast differentiation, calcium accumulation); assay type: cell-based, human; settings: 0.0194% (=10^-4M) compared with 3% and control; FIG. 3
Experimental: Method of Measuring Bone Differentiation Degrees by Dyeing Calcium Accumulation of Bone-Differentiated Cells (Alizarin Red S Staining)
as §1, with “experiments.” for “experiments by using alkaline phosphatase (Sigma, St. Louis, Mo., USA).”

ALP, Runx2, Osx, Ocn = experiment: mRNA expression of osteoblast differentiation markers; assay type: cell-based; settings: 0.0194% (=10^-4M) compared with 3% or control; FIGS. 4A to 4D
ALP and Runx2 = experiment: Western blot protein level; assay type: cell-based; settings: 0.0194% compared with 3% or control; FIG. 5
osteoclasts = experiment: Differentiation of osteoclasts (TRAP staining); assay type: cell-based, human; settings: FIGS. 6A and 6B
Experimental: Method of Measuring Differentiation Abilities of Osteoclasts (TRAP Staining)
as §1, with “osteoclasts” for “osteoblast-like cells”, “bone marrow derived macrophages” for “primary cell”, “once a” for “every other”, “fifth” for “seventh”, “through TRAP staining.” for “by using alkaline phosphatase (Sigma, St. Louis, Mo., USA).”

## CCCCCCc1ccc(O)cc1O [4-hexylresorcinol]
Human primary cells; 0.0194% compared with 3%
  cell proliferation, low versus high concentration: cell proliferation is more active
Human primary cells; 4-hexylresorcinol concentrations of 3% and 0.0194% (=10^-4M)
  cell viabilities versus control: higher than a control
osteoblast-like cells [1]
  ALP activity: high ALP activity
osteoblast-like cells [2]
  calcification (Alizarin Red S staining): high calcification
ALP, Runx2, Osx, Ocn
  mRNA expression level of ALP, Runx2, Osx, Ocn: larger expression level
ALP and Runx2
  ALP and Runx2 protein expression levels (western blot): higher
osteoclasts; 0.0194% compared with 3%
  effect on differentiation of osteoclasts, low versus high concentration: more excellent
osteoclasts; treating 4-hexylresorcinol, fifth day
  differentiation of osteoclasts: inhibited
